# Reference: US20240261271A1, “APPLICATION OF HYDRONIDONE IN PREPARATION OF DRUG FOR TREATING OR PREVENTING CHRONIC HEPATITIS B WITH LIVER FIBROSIS” (priority 2021, published 2024)
# Experiments:
# [1] = tested on: liver stiffness in chronic hepatitis B with hepatic fibrosis; assay: Phase II clinical study: liver transient elastography LSM (kPa); assay type: in vivo, human; conditions: FAS, after 52 weeks of treatment
# Description: (§1) This is a randomized, double-blind, placebo-controlled, multicenter, and dose-finding phase II clinical study with foundational treatment. In the clinical trial, three different dose test groups and a placebo control group were set on the basis of the entecavir capsule antiviral treatment, and the planned sample amount of each group was 60 cases, totaling 240 cases. The three dose test groups were 180 mg group, 270 mg group, and 360 mg group, respectively. The proportion of each test group to the control group was 1:1:1:1, and the cases were distributed randomly. […] Negative conversion rate of HBV DNA after treatment between the groups was compared using CMH-λ2 test or Fisher's exact probability method. • 2. Liver tissue elasticity reduction after treatment between the groups was compared using Kruskal-Wallis H test. • 3. […] The recovery rate of the liver function index after treatment between the groups was compared using CMH-λ2 test or Fisher's exact probability method, and the found values of each index between the groups were compared using variance analysis or Kruskal-Wallis H test.
# [2] = tested on: liver tissue inflammation; assay: Phase II clinical study: liver tissue inflammation grading; assay type: in vivo, human; conditions: after 52 weeks of treatment
# Description: as §1
# HBV DNA = assay: Phase II clinical study: negative conversion rate of HBV DNA; assay type: in vivo, human; conditions: for proportion of the subjects with HBV DNA substantially converted to negative: after 52 weeks of treatment, with entecavir
# Description: as §1
# [3] = Phase II clinical study: safety (adverse events, adverse effects, SAE); assay type: in vivo; conditions: 180, 270 and 360 mg groups vs placebo, 52 weeks, adverse effects and SAE incidence rates not statistically different
# Source text: Safety indexes: vital signs, laboratory indexes, adverse events/adverse effects, and the like.
# All cases that had been randomized, used the study drug at least once, and had safety evaluation data after medication, constitute the safety population for this study.
# Safety indexes include adverse events/adverse effects, laboratory indexes, physical examinations, and the like. • 1. The incidence rates of the adverse events/adverse effects of each group were compared using CMH-λ2 test or Fisher's exact probability method, and the relative frequency and severity of all the adverse events in the test, the relationship with the drug, the treatment, the outcome, and the like were described in a table. • 2. The physical examinations were described in a table for normal/abnormal changes after the experiment. • 3. The laboratory indexes were described in a table for normal/abnormal changes, abnormal exacerbation, and the like before and after the test, and the relationship between the laboratory indexes and the test drug was evaluated. The quantitative indexes were statistically described for each time point measured, the variation inside the groups was compared using Wilcoxon signed rank test, and the variation between the groups was compared using Kruskal-Wallis H test.
structure (smiles),measurement,setting,value
Cc1ccc(=O)n(-c2ccc(O)cc2)c1 [hydronidone],mean decline rate (standard deviation) of the liver transient elastography LSM (kPa),[1]; 180 mg group,18.30%
same,mean decline rate (standard deviation) of the liver transient elastography LSM (kPa),[1]; 270 mg group,24.62%
same,mean decline rate (standard deviation) of the liver transient elastography LSM (kPa),[1]; 360 mg group,18.98%
same,proportion of the subjects with the liver tissue inflammation ameliorated,[2]; 180 mg group,21 (58.33%) n(%)
same,proportion of the subjects with the liver tissue inflammation ameliorated,[2]; 270 mg group,20 (57.14%) n(%)
same,proportion of the subjects with the liver tissue inflammation ameliorated,[2]; 360 mg group,19 (55.88%) n(%)
same,proportion of the subjects with HBV DNA substantially converted to negative,HBV DNA; 180 mg group,34 (94.44%) n(%)
same,proportion of the subjects with HBV DNA substantially converted to negative,HBV DNA; 270 mg group,34 (97.14%) n(%)
same,proportion of the subjects with HBV DNA substantially converted to negative,HBV DNA; 360 mg group,32 (94.12%) n(%)
same,influence on the reduction of the virus titer by entecavir and the ALT recovery,"HBV DNA; each hydronidone test group, 52 weeks",no influence
same,safety,[3],good
